# Data: patent US11903907B2, “Soluble honokiol derivatives” (TAIPEI MEDICAL UNIVERSITY, priority 2017, dated 2024)
# Tests used:
# [1] = Plasma concentration of honokiol and pharmacokinetics after intravenous injection in rats; conditions: rat plasma, i.v.
# Experimental: Mean plasma concentrations of honokiol vs. time profile in five rats were measured after intravenous injection of HP-TMU or honokiol.
# The plasma concentrations of honokiol at different points are expressed as mean±SD, and the mean concentration-time curve is shown in FIG. 4A.
# [2] = system: middle cerebral artery occlusion (MCAO); assay: Long-term recovery after MCAO by neurological severity scoring, comparison with edaravone; type: in vivo, mice; conditions: 1 mg/kg i.v.; at 1, 2, and 7 days after surgery
# Experimental: Mice were subjected to middle cerebral artery occlusion (MCAO) surgery for 30 min, and then treated with the isovolumetric vehicle control (normal saline, intravenous [i.v.]) or HP-TMU (1 mg/kg, i.v.) or edaravone (3 mg/kg, i.v.). The therapeutic effects of HP-TMU on long-term recovery were evaluated by neurological severity scoring before or 1, 2, 7, 14, and 28 days after surgery.
# [3] = system: mouse tail transection model (hemostasis); assay: Bleeding time, mouse tail transection model; type: in vivo, mice; conditions: 0.5 and 1 mg/kg i.v.; measured 10 min after administration
# Experimental: (§1) Coronal sections of 2,3,5-triphenyltetrazolium chloride (TTC)-stained brains were taken after middle cerebral artery occlusion (MCAO) in the vehicle group treated with an isovolumetric solvent (normal saline, intravenous [i.v.]), and groups treated with HP-TMU (0.25, 0.5 and 1 mg/kg, i.v.) or honokiol (0.129, 0.258 and 0.516 mg/kg, i.v.; the doses of honokiol were adjusted by the ratio of the molecular weight of honokiol to HP-TMU (266.33/514.22)) after 30 min-embolic occlusion. The densitometric analyses for the measurement of infarct volume and brain edema were performed after treatment with HP-TMU or honokiol against embolic stroke in mice. Bleeding time was measured 10 min after the i.v. administration of normal saline (isovolumetric control) or HP-TMU (0.5 and 1 mg/kg, i.v.) for 30 min.
# (§2) In addition, MCAO-induced cerebral edema in the ischemic hemisphere was reduced by the treatment of 1 mg/kg HP-TMU (FIG. 1C). […] On the other hand, increased risk of hemorrhage is a major side effect of anti-stroke treatments. To evaluate HP-TMU in this aspect, we used the mouse tail transection model as an index of hemostasis.
# [4] = system: middle cerebral artery occlusion (MCAO); assay: Neurobehavioral functions after MCAO: neurological severity scoring and rotarod test; type: in vivo, mice; conditions: 0.5 and 1 mg/kg i.v., 24 and 48 h after MCAO, P<0.05
# Experimental: Mice were subjected to middle cerebral artery occlusion (MCAO) surgery for 30 min, and then treated with the isovolumetric vehicle control (normal saline, intravenous [i.v.]) or HP-TMU (0.25, 0.5 and 1 mg/kg, i.v.) or honokiol (0.129, 0.258 and 0.516 mg/kg, i.v.). Assays of neurobehavioral functions include neurological severity scoring and the rotarod test. Evaluations were performed before and 24 and 48 h after surgery.
# [5] = system: middle cerebral artery occlusion (MCAO) embolic stroke; assay: MCAO embolic stroke in mice: infarct volume and brain edema from TTC-stained brain sections; type: in vivo
# Experimental: as §1, §2
smiles,measurement,setting,value
"C=CCc1ccc(OP(=O)(O)O)c(-c2ccc(OP(=O)([O-])[O-])c(CC=C)c2)c1.[Na+].[Na+] [HP-TMU, sodium 3′,5-diallyl-[1,1′-biphenyl]-2,4′-diyl bis(phosphate)]",half-life compared to honokiol,[1],prolonged half-life compared to honokiol
same,long-term recovery of neurological deficit,[2],significantly improved
same,bleeding time,[3],did not alter the bleeding time substantially
same,"neurobehavioral (neurological) deficit scores, 18-point scale",[4],significantly ameliorated these increased scores
same,decrease of rotarod duration,[4]; vs vehicle control,significant reversed
same,MCAO-induced cerebral edema in the ischemic hemisphere,[5]; 1 mg/kg i.v.,reduced
same,infarct volume,"[5]; 0.5 and 1 mg/kg i.v. after 30 min-embolic occlusion, compared with solvent control group, P<0.05",significantly reduced the infarct volume
same,neuroprotective effects compared with honokiol,"[5]; HP-TMU 0.25, 0.5, 1 mg/kg i.v. vs honokiol 0.129, 0.258, 0.516 mg/kg i.v.",more potent neuroprotective effects than honokiol
